Values of other authors, collected in US20190381039A1, “USE OF sGC STIMULATORS FOR THE TREATMENT OF ESOPHAGEAL MOTILITY DISORDERS” (Cyclerion Therapeutics, Inc., priority 2016, published 2019).

How the values were obtained:
[1] = tested on: patients with idiopathic achalasia
[2] = tested on: patients with esophageal motility abnormalities
[3] = report from 2000, patients with esophageal dysmotility

| SMILES | utility in achalasia patients (off label) ([1]; Bortolotti et al., Gastroenterology 118(2): 253-7, 2000) | side effects reported by patients ([1]; report from 2000) | LES pressure [1, 3] | clinical symptoms [1, 3] | relief of chest pain [2] |
| --- | --- | --- | --- | --- | --- |
| CCCc1nn(C)c2c(=O)[nH]c(-c3cc(S(=O)(=O)N4CCN(C)CC4)ccc3OCC)nc12 [sildenafil] | some limited utility | dizziness and headaches | able to reduce LES pressure | clinical symptoms were not improved |  |
| CN(C)CCCN1c2ccccc2CCc2ccccc21 [imipramine] |  |  |  |  | effective in relieving chest pain |
| O=c1n(CCCN2CCN(c3cccc(Cl)c3)CC2)nc2ccccn12 [trazodone] |  |  |  |  | effective in relieving chest pain |
